Measured values taken from patent US6277859A, “Morphinan derivative and its pharmaceutical applications” (priority 1992, dated 2001).
Where a name gives a salt, the structure may show the parent alone.

What was measured:
[1] = system: Wistar rats; assay: Evaluation of diuretic action; format: in vivo, rat (male Wistar); details: sc, rat, s.c., urine output for 5 h after 20 ml/kg saline oral; for ED200: read-out: ED200, diuretic action (dose giving urine output of 200, non-dosed group = 100); for ED500: read-out: ED500, diuretic action (dose giving urine output of 500, non-dosed group = 100)
Procedure: Evaluation of Diuretic Action
7-8 week old male Wistar rats were used in this test after prohibiting from drinking water for 1 hour before testing. After discharging any urine accumulated in the bladder by gently stimulating the lower abdomens of the animals, the drug was administered subcutaneously. After 30 minutes, the animals were then forcibly given 20 ml/kg of physiological saline orally. The animals were then placed in metabolic cages immediately after administration of the drug (2 animals/cage) and urine output for 5 hours after loading with physiological saline was measured. Drug efficacy was expressed in the form of those doses resulting in urine outputs of 200 and 500, respectively, when the urine output of a non-dosed group was taken to be 100. Those doses were expressed as the ED200 and ED500 values, respectively.

[2] = biological target: T1, κ receptor (Mus musculus, UniProt P33534); assay: Ke with norBNI in isolated mouse vas deference preparation; format: cell-based, mouse (male ddy); details: for Ke norBNI: norBNI (κ)
T1 construct: The isolated vas deference was filled with Krebes-Henseleit solution; from tissue; host or cells: isolated vas deferens of male ddy mouse
Procedure: (§1) A male ddy mouse was used in this test. The isolated vas deference was filled with Krebes-Henseleit solution (NaCl 118 mM; KCl 4.7 mM; CaCl2 2.5 mM; KH2 PO4 1.1 mM; NaHCO3 25 mM; and glucose 10 mM) warmed to 37° C. and suspended in a Magnus tube ventilated with 5% carbon dioxide and 95% oxygen. Electrical stimulus was performed at 0.1 Hz for 5.0 ms by means of ring-shaped platinum electrodes located above and below. Tissue contractions were recorded on a polygraph using an isometric transducer.
(§2) Then after adequately washing with nutrient solution and the contraction reaction stabilized, naloxone, a μ […], NTI, a δ […], or norBNI, a κ […], were added and the test compound was again cumulatively added after roughly 20 minutes. The Ke value was calculated using the following calculation formula from the difference in the efficacies of both agonists.
(§3) Ke=[Conc. of added agonist]/(IC50 ratio-1)
(§4) IC50 ratio IC50 in the presence of agonist/IC50 in the absence of agonist

[3] = biological target: T2, δ receptor (Mus musculus, UniProt P32300); assay: Ke with NTI in isolated mouse vas deference preparation; format: cell-based, mouse (male ddy); details: for Ke NTI: NTI (δ)
T2 construct: The isolated vas deference was filled with Krebes-Henseleit solution; from tissue; host or cells: isolated vas deferens of male ddy mouse
Procedure: as §1, §2, §3, §4

[4] = biological target: T3, μ receptor (Mus musculus, UniProt P42866); assay: Ke with naloxone in isolated mouse vas deference preparation; format: cell-based, mouse (male ddy)
T3 construct: The isolated vas deference was filled with Krebes-Henseleit solution; from tissue; host or cells: isolated vas deferens of male ddy mouse
Procedure: as §1, §2, §3, §4

T1 sequence (P33534 whole entry): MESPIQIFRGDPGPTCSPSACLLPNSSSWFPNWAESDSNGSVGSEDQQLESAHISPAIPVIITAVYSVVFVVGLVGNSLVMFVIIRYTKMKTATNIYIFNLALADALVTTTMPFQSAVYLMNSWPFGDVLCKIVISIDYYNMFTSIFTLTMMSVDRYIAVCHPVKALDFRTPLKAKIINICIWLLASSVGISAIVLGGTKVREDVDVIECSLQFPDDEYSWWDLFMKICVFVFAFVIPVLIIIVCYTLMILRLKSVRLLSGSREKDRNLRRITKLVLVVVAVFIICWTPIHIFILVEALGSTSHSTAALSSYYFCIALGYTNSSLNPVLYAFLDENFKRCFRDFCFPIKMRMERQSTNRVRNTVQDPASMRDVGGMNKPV
T3 sequence (P42866 whole entry): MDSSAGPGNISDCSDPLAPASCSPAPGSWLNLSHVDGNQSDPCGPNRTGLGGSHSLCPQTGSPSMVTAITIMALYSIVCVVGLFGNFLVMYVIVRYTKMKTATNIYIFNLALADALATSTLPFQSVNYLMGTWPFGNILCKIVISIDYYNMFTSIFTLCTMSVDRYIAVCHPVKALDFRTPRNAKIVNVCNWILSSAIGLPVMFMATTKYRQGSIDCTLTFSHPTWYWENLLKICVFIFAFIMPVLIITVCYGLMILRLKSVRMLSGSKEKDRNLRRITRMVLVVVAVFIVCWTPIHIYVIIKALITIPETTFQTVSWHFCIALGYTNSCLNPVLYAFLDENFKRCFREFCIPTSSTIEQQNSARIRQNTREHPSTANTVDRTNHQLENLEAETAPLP
T2 sequence (P32300 whole entry): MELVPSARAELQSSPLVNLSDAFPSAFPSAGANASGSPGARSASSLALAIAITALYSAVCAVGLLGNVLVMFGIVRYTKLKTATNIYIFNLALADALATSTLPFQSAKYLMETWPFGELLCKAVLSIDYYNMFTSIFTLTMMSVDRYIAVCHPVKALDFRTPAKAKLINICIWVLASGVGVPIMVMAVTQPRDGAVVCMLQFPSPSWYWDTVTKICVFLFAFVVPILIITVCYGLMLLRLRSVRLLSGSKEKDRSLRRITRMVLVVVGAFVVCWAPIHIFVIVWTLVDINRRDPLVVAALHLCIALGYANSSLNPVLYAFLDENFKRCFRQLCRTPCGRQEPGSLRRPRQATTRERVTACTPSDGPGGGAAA

| SMILES | ED200 [1] [µg/kg] | selective agonist for κ receptors (in words) [2] | Ke norBNI [2] [nM] | Ke NTI [3] [nM] | also measured |
| --- | --- | --- | --- | --- | --- |
| CN(C(=O)Cc1ccc(Br)cc1)[C@H]1CC[C@@]2(O)[C@H]3Cc4ccc(O)c5c4[C@@]2(CCN3CC2CC2)[C@H]1O5 [Compound 28, 17-cyclopropylmethyl-3,14β-dihydroxy-4,5α-epoxy-6α-(N-methyl-4-bromophenylacetamido)morphinan.hydrobromide] | 20 | – | – | – | – |
| CCCCCCC(=O)N(C)[C@H]1CC[C@@]2(O)[C@H]3Cc4ccc(O)c5c4[C@@]2(CCN3CC2CC2)[C@H]1O5 [Compound 46, 17-cyclopropylmethyl-3,14β-dihydroxy-4,5α-epoxy-6α-(N-methylheptanamido)morphinan.hydrochloride] | – | selective agonists for κ receptors | 0.440 | – | – |
| CN(C(=O)/C=C/C1CCCCC1)[C@H]1CC[C@@]2(O)[C@H]3Cc4ccc(O)c5c4[C@@]2(CCN3CC2CC2)[C@H]1O5 [Compound 50, 17-cyclopropylmethyl-4,5α-epoxy-3,14β-dihydroxy-6α-(N-methyl-trans-3-cyclohexylacrylamido)morphinan.hydrochloride] | 2.1 | – | – | – | – |
| O=C(Cc1ccc(Cl)c(Cl)c1)N[C@H]1CC[C@@]2(O)[C@H]3Cc4ccc(O)c5c4[C@@]2(CCN3CC2CC2)[C@H]1O5 [Compound 52, 17-cyclopropylmethyl-4,5α-epoxy-3,14β-dihydroxy-6α-(3,4-dichlorophenylacetoamido) morphinan.hydrochloride] | – | selective agonists for κ receptors | – | – | – |
| CN(C(=O)Cc1ccc(Cl)c(Cl)c1)[C@@H]1CC[C@@]2(O)[C@H]3Cc4ccc(O)c5c4[C@@]2(CCN3CC2CC2)[C@H]1O5 [Compound 53, 17-cyclopropylmethyl-4,5α-epoxy-3,14β-dihydroxy-6β-(N-methyl-3,4-dichlorophenylacetoamido)morphinan.hydrochloride] | – | – | 0.21 | 1676 | – |
| CN(C(=O)OCc1ccccc1)[C@@H]1CC[C@@]2(O)[C@H]3Cc4ccc(O)c5c4[C@@]2(CCN3CC2CC2)[C@H]1O5 [Compound 56, 17-cyclopropylmethyl-3,14β-dihydroxy-4,5α-epoxy-60-(N-methylbenzyloxycarbamido)morphinan.hydrochloride] | 2.8 | – | – | – | – |
| CN(C(=O)CCc1ccccc1)[C@@H]1CC[C@@]2(O)[C@H]3Cc4ccc(O)c5c4[C@@]2(CCN3CC2CC2)[C@H]1O5 [Compound 57, 17-cyclopropylmethyl-3,14β-dihydroxy-4,5α-epoxy-60-(N-methyl-3-phenylpropionamido) morphinan.hydrochloride] | – | selective agonists for κ receptors | 0.0124 | 747 | – |
| CCCCOC(=O)N(C)[C@@H]1CC[C@@]2(O)[C@H]3Cc4ccc(O)c5c4[C@@]2(CCN3CC2CC2)[C@H]1O5 [Compound 59, 17-cyclopropylmethyl-3,14β-dihydroxy-4,5α-epoxy-6β-(N-methylbutyroxycarbamido)morphinan.tartrate] | – | selective agonists for κ receptors | 0.151 | 47.3 | Ke Naloxone [4]: 21.3 nM |
| CCCCCC(=O)N(C)[C@@H]1CC[C@@]2(O)[C@H]3Cc4ccc(O)c5c4[C@@]2(CCN3CC2CC2)[C@H]1O5 [Compound 62, 17-cyclopropylmethyl-3,14β-dihydroxy-4,5α-epoxy-6β-(N-methylhexanamido)morphinan.tartrate] | – | selective agonists for κ receptors | 0.203 | 90.2 | – |
| CN(C(=O)/C=C/c1ccc(C(F)(F)F)cc1)[C@@H]1CC[C@@]2(O)[C@H]3Cc4ccc(O)c5c4[C@@]2(CCN3CC2CC2)[C@H]1O5 [Compound 73, 17-cyclopropylmethyl-3,14,β-dihydroxy-4,5α-epoxy-6β-(N-methyl-4-trifluoromethylcinnamamido) morphinan.tartrate] | – | selective agonists for κ receptors | 0.272 | 78 | Ke Naloxone [4]: 524 nM |
| CN(C(=O)/C=C/c1ccc(Cl)c(Cl)c1)[C@H]1CC[C@@]2(O)[C@H]3Cc4ccc(O)c5c4[C@@]2(CCN3CC2CC2)[C@H]1O5 [Compound 86, 17-cyclopropylmethyl-3,14β-dihydroxy-4,5α-epoxy-6α-(N-methyl-3,4-dichlorocinnamamido) morphinan.hydrochloride] | 5.7 | – | – | – | – |
| CN(C(=O)/C=C/c1ccsc1)[C@H]1CC[C@@]2(O)[C@H]3Cc4ccc(O)c5c4[C@@]2(CCN3CC2CC2)[C@H]1O5 [Compound 91, 17-cyclopropylmethyl-3,14β-dihydroxy-4,5α-epoxy-6α-[N-methyl-trans-3-(3-thienyl)acrylamido]morphinan.tartrate] | 9.4 | selective agonists for κ receptors | 0.699 | 450 | ED500 [1]: 0.96 mg/kg |
| CCC/C=C/C(=O)N(C)[C@H]1CC[C@@]2(O)[C@H]3Cc4ccc(O)c5c4[C@@]2(CCN3CC2CC2)[C@H]1O5 [Compound 95, 17-cyclopropylmethyl-3,14β-dihydroxy-4,5α-epoxy-6α-(N-methyl-trans-2-hexenamido)morphinan.tartrate] | 2.8 | – | – | – | – |
| CN(C(=O)CC(=O)c1ccccc1)[C@@H]1CC[C@@]2(O)[C@H]3Cc4ccc(O)c5c4[C@@]2(CCN3CC2CC2)[C@H]1O5 [Compound 103, 17-cyclopropylmethyl-3,14β-dihydroxy-4,5α-epoxy-6β-(N-methylbenzoylacetamido)morphinan.tartrate] | – | selective agonists for κ receptors | 0.657 | – | – |
| CN(C(=O)/C=C/c1cccc([N+](=O)[O-])c1)[C@@H]1CC[C@@]2(O)[C@H]3Cc4ccc(O)c5c4[C@@]2(CCN3CC2CC2)[C@H]1O5 [Compound 104, 17-cyclopropylmethyl-3,14β-dihydroxy-4,5α-epoxy-6β-(N-methyl-3-nitrocinnamamido)morphinan.tartrate] | – | – | 1.40 | 89 | Ke Naloxone [4]: 185 nM |
| CN(C(=O)Cc1ccc(F)c(F)c1)[C@H]1CC[C@@]2(O)[C@H]3Cc4ccc(O)c5c4[C@@]2(CCN3CC2CC2)[C@H]1O5 [Compound 105, 17-cyclopropylmethyl-3,14β-dihydroxy-4,5α-epoxy-6α-(N-methyl-3,4-difluorophenylacetamido)morphinan.hydrochloride] | 19 | – | – | – | ED500 [1]: 3.3 mg/kg |
| CN(C(=O)Cc1csc2ccccc12)[C@H]1CC[C@@]2(O)[C@H]3Cc4ccc(O)c5c4[C@@]2(CCN3CC2CC2)[C@H]1O5 [Compound 107, 17-cyclopropylmethyl-3,14β-dihydroxy-4,5α-epoxy-6α-(N-methyl-3-benzo[b]thienylacetamido)morphinan.hydrochloride] | 6.1 | – | – | – | ED500 [1]: 0.2 mg/kg |
| CN(C(=O)Cc1cccc(C(F)(F)F)c1)[C@H]1CC[C@@]2(O)[C@H]3Cc4ccc(O)c5c4[C@@]2(CCN3CC2CC2)[C@H]1O5 [Compound 108, 17-cyclopropylmethyl-3,14β-dihydroxy-4,5α-epoxy-6α-(N-methyl-3-trifluoromethylphenylacetamido) morphinan.hydrochloride] | 21 | – | – | – | – |
| C=CCN1CC[C@]23c4c5ccc(O)c4O[C@H]2[C@@H](N(C)C(=O)Cc2ccc(Cl)c(Cl)c2)CC[C@@]3(O)[C@H]1C5 [Compound 122, 17-allyl-3,14β-dihydroxy-4,5α-epoxy-6α-(N-methyl-3,4-dichlorophenylacetamido)morphinan.hydrochloride] | – | selective agonists for κ receptors | 0.358 | 42.7 | Ke Naloxone [4]: 59.5 nM |
| CN(C(=O)C#Cc1ccc(C(F)(F)F)cc1)[C@H]1CC[C@@]2(O)[C@H]3Cc4ccc(O)c5c4[C@@]2(CCN3CC2CC2)[C@H]1O5 [Compound 126, 17-Cyclopropylmethyl-3,14β-dihydroxy-4,5α-epoxy-6α-[N-methyl-3-(4-trifluoromethylphenyl)propiolamido] morphinan.0.5 tartrate] | – | – | 1.20 | 0.0065 | Ke Naloxone [4]: 40.2 nM; selective agonist for δ receptors (in words) [3]: selective agonists for δ receptors |
| CC(=O)Oc1ccc2c3c1O[C@H]1[C@H](N(C)C(=O)/C=C/c4cccc(C(F)(F)F)c4)CC[C@@]4(O)[C@@H](C2)N(CC2CC2)CC[C@]314 [Compound 141, 17-cyclopropylmethyl-3-acetoxy-14β-hydroxy-4,5α-epoxy-6β-(N-methyl-3-trifluoromethylcinnamamido)morphinan.tartrate] | – | selective agonists for κ receptors | 1.39 | 184 | Ke Naloxone [4]: 142 nM |
